Results on 6 molecules are retold here after paper PMC8560939 (Scientific Reports, 2021).

The target in one series is T1, human LDHA (Homo sapiens, UniProt P00338).
T1 construct: purchased R&D Systems
Kind of series: LDHA enzyme assay by RapidFire-MS. The class given is biochemical. Here is the method: (§1) To compare the selectivity potency of the 22 selected compounds, we evaluated the compounds against human LDHB and LDHA by RF-MS. […] The Km value was also determined for the LDHA reaction. All EC50 values are listed in Supplementary Table 1.
These concentrations were chosen based on fitting to the Michaelis–Menten model with the Km values (Supplementary Figure S2).
(§2) For RF-MS (Agilent, Wakefield, MA, USA), the enzyme reaction solution (5 μL) was aspirated directly from the quenched assay plates and loaded onto a C8 solid-phase extraction cartridge (Agilent) with a mobile phase of water containing DHAA (5 mM) for 2500 ms at a flow rate of 1.25 mL/min. The analytes were then co-eluted into the mass spectrometer using water:acetonitrile:acetone (2:1:1) containing ammonium acetate (5 mM) for 5000 ms at a flow rate of 1.0 ml/min. […] The extracted ion chromatograms for each transition were integrated and processed using RapidFire Integrator (Agilent). The data for each well were normalised using the monitoring product conversion with the ratio of AUCproduct / (AUCproduct + AUCsubstrate).
To determine the compound activities, percent inhibition data normalised to 0% (DMSO only) and 100% inhibition (no-enzyme control) wells were calculated. […]
The reaction product was measured by RF-MS. […] The quality and robustness of the screening campaign process were determined by analysing the Z’ factor.

Another series is described as follows: Cellular activity. The class given is cell-based.
The target in series [1] is T2, LDHB (Homo sapiens, UniProt P07195).
T2 construct: purchased R&D Systems
T2 sequence (P07195 whole entry): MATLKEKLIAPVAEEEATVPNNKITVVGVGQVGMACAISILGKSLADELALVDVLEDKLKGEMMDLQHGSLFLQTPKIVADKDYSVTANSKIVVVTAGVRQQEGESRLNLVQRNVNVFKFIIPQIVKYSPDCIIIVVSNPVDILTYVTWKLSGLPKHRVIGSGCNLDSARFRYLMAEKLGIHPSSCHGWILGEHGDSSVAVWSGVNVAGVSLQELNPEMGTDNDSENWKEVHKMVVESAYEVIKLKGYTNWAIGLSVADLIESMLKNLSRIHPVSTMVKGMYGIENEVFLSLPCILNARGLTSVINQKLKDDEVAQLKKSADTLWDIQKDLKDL
Briefly: LDHB enzyme assay by RapidFire-MS (NADH to NAD+ conversion). The following applies: RF-MS. In kind it is biochemical. Here is the method:
as §1
We screened for compounds (final concentration: 10 μM) within pooled libraries consisting of more than 345,000 compounds. Each compound in DMSO (1 mM) was dispensed into 384-well V base plates (100 nL/well) using an Echo 555 acoustic dispenser (Labcyte, Sunnyvale, CA, USA). LDHB (5 μL) was diluted in assay buffer (20 mM Tris [pH 7.5], containing 2 mM DTT, 0.005% Triton X100, and 0.005% BSA) and dispensed into assay plates (final concentration: 0.25 nM). […] After incubation for 30 min at room temperature, acetonitrile (10 μL) and water (50 μL) were added to quench the reaction. All additions were performed using a Multidrop Combi (Thermo Fisher Scientific, Waltham, MA, USA). Assay plates were sealed and centrifuged (2700× g for 10 min) before storage at − 20 °C.
as §2
To determine the compound activities, percent inhibition data normalised to 0% (DMSO only) and 100% inhibition (no-enzyme control) wells were calculated. Data analysis was performed using the Tibco Spotfire (Boston, MA, USA) packages.
(§3) The reaction product was measured by RF-MS. To estimate the Km and Vmax values, the initial rates were fit to the Michaelis–Menten equation. EC50 and Hill slope calculation and curve fitting using four-parameter fits were performed using GraphPad Prism v6.07 (GraphPad Software, San Diego, CA, USA) or XLfit (IDBS, Guildford, UK) with nonlinear regression analysis, wherein the EC50 value equaled the concentration at which the inflection point of the fitted model was reached. The quality and robustness of the screening campaign process were determined by analysing the Z’ factor.

Series [2] deals with T2, LDHB. Kind of series: Substrate-competition assay (varying NADH or pyruvate). The class given is biochemical. The following applies: for Vmax (NADH): NADH titration; for Vmax (Pyruvate): pyruvate titration. Here is the method: To elucidate the underlying inhibitory mechanism, substrate competition assays were performed. LDHB inhibitory activity for AXKO-0046 was assessed at different concentrations of the substrate.
Moreover, the Km and Vmax values for LDHB were determined in the presence AXKO-0046. As the AXKO-0046 concentration increased in the reaction, both Vmax and Km decreased proportionally (Supplementary Fig. 3 and Table 1). The Lineweaver–Burke plot lines were nearly parallel (Fig. 3c,d), indicating uncompetitive inhibition with a strong preference for inhibiting the enzyme–substrate complex.
A solution of AXKO-0046 (0.00001, 0.0001, 0.001, 0.01, 0.1, 1, 10, and 100 μM) with 0.25 nM LDHB was then added. The enzymatic reactions were performed at room temperature for 15 min in triplicate. At each inhibitor concentration, the dependence of the initial reaction velocity on the substrate concentration was fitted to a nonlinear Michaelis–Menten model to obtain the Km and Vmax values using GraphPad Prism. Lineweaver–Burk plots were generated by superimposing the data of 1/[velocity] and 1/[substrate] and the line corresponding to the Michaelis–Menten nonlinear fit.

Series [3] has as its target T2, LDHB. Briefly: Time-dependent inhibition (pre-incubation of AXKO-0046 and LDHB). In kind it is biochemical. As to conditions: pre-incubation with LDHB up to 120 min. Here is the method:
We then assessed whether there was any time dependence to the onset of inhibition by varying the time for which AXKO-0046 and LDHB were pre-incubated before initiating the enzymatic reaction.
Supplementary Figure 4. Time-dependent inhibition of LDHB activity by AXKO-0046. Time-dependent inhibition was measured by pre-incubating AXKO-0046 and LDHB for 0, 30, 60, or 120 min, as indicated, before initiating the LDHB reaction. Data are shown as mean (n = 2).

Another series deals with T3, CC(=O)C(=O)O.
T3 construct: purchased R&D Systems
Kind of series: Determination of substrate Km for LDHB (assay optimisation). In kind it is biochemical, human. As to conditions: other: 500 µM NADH, increasing pyruvate. Here is the method:
Next, we optimised the assay conditions of RF-MS. Titration of human LDHB was examined at concentrations ranging from 0.0625 to 1 nM. […] We used 0.25 nM LDHB throughout assay development and screening to ensure enzyme activation. […] The Km values obtained from the two assays were consistent with the reported values for LDHB[15],[16].
as §3
Data were fitted to the Michaelis–Menten equations to obtain the kinetic constant Km using GraphPad Prism. Data are shown as mean ± standard deviation (n = 4).

For series [4], the system named is NC(=O)C1=CN([C@@H]2O[C@H](COP(=O)(O)OP(=O)(O)OC[C@H]3O[C@@H](n4cnc5c(N)ncnc54)[C@H](O)[C@@H]3O)[C@@H](O)[C@H]2O)C=CC1. Briefly: purified protein, by the assay type. As to conditions: other: 500 μM pyruvate, increasing NADH.
Setting [5] is: read-out: EC50 (μM), LDHB inhibitory activity of AXKO-0046 derivatives.

Where two headings read alike, the source gives them in different places.

`c1ccc(CNCCc2c(CNC3CCCCCC3)[nH]c3ccccc23)cc1` [AXKO-0046, N-({3-[2-(benzylamino)ethyl]-1H-indol-2-yl}methyl) cycloheptanamine]: the “inhibition of LDHA (concentration response curve)” value at human LDHA is reported as “did not inhibit LDHA”. The cellular activity result in the series “Cellular activity” was “no potent cellular activity”. Also, on LDHB [1] (four-parameter fit, read-out: EC50 for LDHB), the EC50 stood at 0.042 µM. On LDHB [2], the “mode of inhibition with respect to NADH and pyruvate” value is recorded as “uncompetitive with both substrates”. Further, the “Vmax (NADH)” value on LDHB [2] (AXKO-0046 0.00001 µM, 100 μM pyruvate) stood at 10.1 µM/min; on LDHB [2] (AXKO-0046 0.0001 µM, 100 μM pyruvate) it was 10.7 µM/min; on LDHB [2] (AXKO-0046 0.001 µM, 100 μM pyruvate) it was 9.7 µM/min; at LDHB [2] (AXKO-0046 0.01 µM, 100 μM pyruvate) it was 8.3 µM/min; on LDHB [2] (AXKO-0046 0.1 µM, 100 μM pyruvate) it was 6.0 µM/min; at LDHB [2] (AXKO-0046 1 µM, 100 μM pyruvate), 2.9 µM/min. For the same molecule, the “Vmax (NADH)” value at LDHB [2] (AXKO-0046 10 µM, 100 μM pyruvate) is 2.1 µM/min; at LDHB [2] (AXKO-0046 100 µM, 100 μM pyruvate), 2.2 µM/min. In addition, the “Vmax (Pyruvate)” value was determined as 7.3 µM/min at LDHB [2] (AXKO-0046 0.00001 µM, 100 μM NADH); 6.9 µM/min on LDHB [2] (AXKO-0046 0.0001 µM, 100 μM NADH); 6.5 µM/min at LDHB [2] (AXKO-0046 0.001 µM, 100 μM NADH); 6.6 µM/min on LDHB [2] (AXKO-0046 0.01 µM, 100 μM NADH); 4.3 µM/min on LDHB [2] (AXKO-0046 0.1 µM, 100 μM NADH); 2.0 µM/min on LDHB [2] (AXKO-0046 1 µM, 100 μM NADH). Moreover, the “Vmax (Pyruvate)” value at LDHB [2] (AXKO-0046 10 µM, 100 μM NADH) came out at 1.6 µM/min; on LDHB [2] (AXKO-0046 100 µM, 100 μM NADH), 1.6 µM/min. The IC50 on LDHB [2] (NADH 30 μM, 100 μM pyruvate) was 702 nM; on LDHB [2] (NADH 50 μM, 100 μM pyruvate), 330 nM; on LDHB [2] (NADH 100 μM, 100 μM pyruvate), 223 nM; at LDHB [2] (NADH 200 μM, 100 μM pyruvate) it was 94.2 nM; at LDHB [2] (Pyruvate 30 μM, 100 μM NADH) it was 197 nM; at LDHB [2] (Pyruvate 50 μM, 100 μM NADH), 114 nM. This molecule also had an IC50 at LDHB [2] (Pyruvate 200 μM, 100 μM NADH) of 96.3 nM. Moreover, the “inhibition potential with pre-incubation time” value against LDHB [3] is reported as “did not increase with pre-incubation time”.

Take `CN(CCc1c(CN(C)C2CCCCCC2)[nH]c2ccccc12)Cc1ccccc1` [AXKO-0058]: the EC50 at LDHB [1] (setting [5]) came to 8.3 µM.

In the case of `CN(CCc1c(CNC2CCCCCC2)[nH]c2ccccc12)Cc1ccccc1` [AXKO-0060], the EC50 on LDHB [1] (setting [5]) was 0.25 µM.

Take `Cn1c(CNC2CCCCCC2)c(CCNCc2ccccc2)c2ccccc21` [AXKO-0067]: the EC50 on LDHB [1] (setting [5]) is over 100 µM.

`CN(Cc1[nH]c2ccccc2c1CCNCc1ccccc1)C1CCCCCC1` [AXKO-0077]: the EC50 on LDHB [1] (setting [5]) was determined as 7.4 µM.

With human LDHB (Homo sapiens), the Km was 116 µM in the series with CC(=O)C(=O)O and 64 µM in series [4].

As a reminder, the EC50 is the concentration that produces a half-maximal response. A word on the IC50: it is the concentration that gives 50% inhibition. As usually defined, the Km is the concentration of substrate that gives half-maximal velocity.
